# Laboratory results: patent US20260053834A1, “COVALENT MODIFIERS OF AKT1 AND USES THEREOF” (Terremoto Biosciences, Inc., priority 2023, published 2026)
# Tests used:
# [1] = molecular target: T1, AKT2 (Homo sapiens, UniProt P31751); test: Live cell target engagement by NanoBRET competitive probe displacement, AKT2; assay type: binding; conditions: transfected HEK293 cells, 2 h at 37° C., read-out: AKT2 IC50: GeoMean IC50
# T1 construct: expressed in transfected cells; host or cells: HEK293
# [2] = molecular target: T2, AKT1 WT (Homo sapiens, UniProt P31749); test: Live cell target engagement by NanoBRET competitive probe displacement, AKT1 WT; assay type: binding; conditions: transfected HEK293 cells, 2 h at 37° C., read-out: AKT1 WT IC50: GeoMean IC50
# T2 construct: expressed in transfected cells; host or cells: HEK293
# T2 sequence (P31749 whole entry): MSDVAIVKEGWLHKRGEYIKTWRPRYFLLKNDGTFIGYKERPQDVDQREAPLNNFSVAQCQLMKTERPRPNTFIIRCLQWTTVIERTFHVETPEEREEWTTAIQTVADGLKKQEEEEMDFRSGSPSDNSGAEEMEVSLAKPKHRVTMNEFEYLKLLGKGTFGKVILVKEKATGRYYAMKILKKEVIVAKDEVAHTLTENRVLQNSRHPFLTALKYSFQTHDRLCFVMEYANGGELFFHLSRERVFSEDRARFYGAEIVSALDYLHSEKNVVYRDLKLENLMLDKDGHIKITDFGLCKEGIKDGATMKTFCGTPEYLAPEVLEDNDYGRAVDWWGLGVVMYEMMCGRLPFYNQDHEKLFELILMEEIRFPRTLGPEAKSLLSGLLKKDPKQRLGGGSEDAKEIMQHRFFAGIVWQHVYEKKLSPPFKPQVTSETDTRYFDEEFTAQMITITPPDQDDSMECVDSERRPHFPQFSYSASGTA
# [3] = test system: LAPC4 prostate cancer cells, which express the AKT1 E17K allele; test: Antiproliferative effects in LAPC4 cells (CellTiter Glo, 72 h); assay type: cell-based; conditions: Homo sapiens, LAPC4, 72 h, read-out: LAPC4 proliferation IC50: GeoMean IC50
# Method in brief: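 IC50 values come from Hill-equation fitting of luminescence (cellular ATP) after 72 h compound exposure. Treated wells held 1,000 cells each, with compound delivered as DMSO dilutions. Culture medium was IMDM plus 12% FBS.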
# [4] = molecular target: T3, AKT1 E17K (Homo sapiens, UniProt P31749, E17K); test: Live cell target engagement by NanoBRET competitive probe displacement, AKT1 E17K; assay type: binding; conditions: transfected HEK293 cells, 2 h at 37° C., read-out: AKT1 E17K IC50: GeoMean IC50
# T3 construct: expressed in transfected cells; host or cells: HEK293
# T3 sequence (P31749 whole entry E17K): as the sequence (P31749 whole entry) above, with E17K counted along it
# T1 sequence (P31751 whole entry): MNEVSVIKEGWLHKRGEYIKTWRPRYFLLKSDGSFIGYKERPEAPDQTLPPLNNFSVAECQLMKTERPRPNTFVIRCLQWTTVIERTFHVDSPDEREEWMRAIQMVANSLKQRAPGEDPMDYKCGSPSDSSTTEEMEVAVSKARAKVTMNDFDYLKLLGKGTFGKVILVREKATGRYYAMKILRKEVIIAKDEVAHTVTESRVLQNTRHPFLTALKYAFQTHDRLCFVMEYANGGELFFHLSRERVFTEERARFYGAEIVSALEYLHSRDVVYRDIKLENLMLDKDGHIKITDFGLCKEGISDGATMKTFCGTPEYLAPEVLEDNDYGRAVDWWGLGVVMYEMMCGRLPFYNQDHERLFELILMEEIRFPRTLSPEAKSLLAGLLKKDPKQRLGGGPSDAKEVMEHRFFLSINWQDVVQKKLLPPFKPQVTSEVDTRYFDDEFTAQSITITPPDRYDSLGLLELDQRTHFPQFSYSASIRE
Compound,IC50 [1],IC50 [2],IC50 [3],IC50 [4]
"Nc1ncccc1-c1nc2ccc(-n3cccn3)nc2n1-c1ccc2c(c1)CC[C@@H]2NC(=O)c1cc(C=O)c(O)cc1-n1cccn1 [Example 205, N-[(1S)-5-[2-(2-aminopyridin-3-yl)-5-(pyrazol-1-yl)imidazo[4,5-b]pyridin-3-yl]-2,3-dihydro-1H-inden-1-yl]-5-formyl-4-hydroxy-2-(pyrazol-1-yl)benzamide]",100 to 2000 nM,10 to 100 nM,100 to 2000 nM,10 to 100 nM
"Nc1ncccc1-c1nc2ccc(-n3cccn3)nc2n1-c1ccc2c(c1)CC[C@@H]2NC(=O)c1cc(C=O)c(O)c2nccn12 [Example 169, N-[(1S)-5-[2-(2-aminopyridin-3-yl)-5-(pyrazol-1-yl)imidazo[4,5-b]pyridin-3-yl]-2,3-dihydro-1H-inden-1-yl]-7-formyl-8-hydroxyimidazo[1,2-a]pyridine-5-carboxamide]",≥ 2000 nM,≥ 2000 nM,100 to 2000 nM,≥ 2000 nM
"Nc1ncccc1-c1nc2c(C3CC3)cc(-n3cccn3)nc2n1-c1ccc2c(c1)CC[C@@H]2NC(=O)c1ccc(O)c(C=O)c1 [Example 230, N-[(1S)-5-[2-(2-aminopyridin-3-yl)-7-cyclopropyl-5-(pyrazol-1-yl)imidazo[4,5-b]pyridin-3-yl]-2,3-dihydro-1H-inden-1-yl]-3-formyl-4-hydroxybenzamide]",100 to 2000 nM,10 to 100 nM,100 to 2000 nM,10 to 100 nM
"Cc1csc(-c2ccc3nc(-c4cccnc4N)n(-c4ccc5c(c4)CC[C@@H]5NC(=O)c4ccc(O)c(C=O)c4)c3n2)n1 [Example 133, (S)—N-(5-(2-(2-aminopyridin-3-yl)-5-(4-methylthiazol-2-yl)-3H-imidazo[4,5-b]pyridin-3-yl)-2,3-dihydro-1H-inden-1-yl)-3-formyl-4-hydroxybenzamide]",10 to 100 nM,< 10 nM,10 to 100 nM,< 10 nM
"Nc1ncccc1-c1nc2ccc(-n3ccc(F)n3)nc2n1-c1ccc2c(c1)CC[C@@H]2NC(=O)c1ccc(O)c(C=O)c1 [Example 75, (S)—N-(5-(2-(2-aminopyridin-3-yl)-5-(3-fluoro-1H-pyrazol-1-yl)-3H-imidazo[4,5-b]pyridin-3-yl)-2,3-dihydro-1H-inden-1-yl)-3-formyl-4-hydroxybenzamide]",100 to 2000 nM,10 to 100 nM,100 to 2000 nM,10 to 100 nM
"Nc1ncccc1-c1nc2cccnc2n1-c1ccc2c(c1)CC[C@@H]2NC(=O)c1ccc(O)c(C=O)c1 [Example 15, N-[(1S)-5-[2-(2-aminopyridin-3-yl)imidazo[4,5-b]pyridin-3-yl]-2,3-dihydro-1H-inden-1-yl]-3-formyl-4-hydroxybenzamide]",≥ 2000 nM,100 to 2000 nM,100 to 2000 nM,10 to 100 nM
"Nc1ncccc1-c1nc2ccc(-c3cccnn3)nc2n1-c1ccc2c(c1)CC[C@@H]2NC(=O)c1ccc(O)c(C=O)c1 [Example 18, N-[(1S)-5-[2-(2-aminopyridin-3-yl)-5-(pyridazin-3-yl)imidazo[4,5-b]pyridin-3-yl]-2,3-dihydro-1H-inden-1-yl]-3-formyl-4-hydroxybenzamide]",100 to 2000 nM,10 to 100 nM,100 to 2000 nM,10 to 100 nM
"Nc1ncccc1-c1nc2ccc(-n3cccn3)nc2n1-c1ccc2c(c1)CC[C@@H]2n1c(=O)[nH]c2cc(O)c(C=O)cc2c1=O [Example 238, 3-[(1S)-5-[2-(2-aminopyridin-3-yl)-5-(pyrazol-1-yl)imidazo[4,5-b]pyridin-3-yl]-2,3-dihydro-1H-inden-1-yl]-7-hydroxy-2,4-dioxo-1H-quinazoline-6-carbaldehyde]",≥ 2000 nM,≥ 2000 nM,≥ 2000 nM,100 to 2000 nM
"Cc1cc(-n2cccn2)nc2c1nc(-c1cccnc1N)n2-c1ccc2c(c1)CC[C@@H]2NC(=O)c1cc(C=O)c(O)cc1F [Example 202, (S)—N-(5-(2-(2-aminopyridin-3-yl)-7-methyl-5-(1H-pyrazol-1-yl)-3H-imidazo[4,5-b]pyridin-3-yl)-2,3-dihydro-1H-inden-1-yl)-2-fluoro-5-formyl-4-hydroxybenzamide]",10 to 100 nM,10 to 100 nM,10 to 100 nM,10 to 100 nM
"COc1ccn(-c2ccc3nc(-c4cccnc4N)n(-c4ccc5c(c4)CC[C@@H]5NC(=O)c4ccc(O)c(C=O)c4)c3n2)n1 [Example 106, N-[(1S)-5-[2-(2-aminopyridin-3-yl)-5-(3-methoxypyrazol-1-yl)imidazo[4,5-b]pyridin-3-yl]-2,3-dihydro-1H-inden-1-yl]-3-formyl-4-hydroxybenzamide]",100 to 2000 nM,10 to 100 nM,10 to 100 nM,10 to 100 nM
"Cc1cc(-n2cccn2)nc2c1nc(-c1cccnc1N)n2-c1ccc2c(c1)CC[C@@H]2NC(=O)c1ccc(O)c(C=O)c1 [Example 131, (S)—N-(5-(2-(2-aminopyridin-3-yl)-7-methyl-5-(1H-pyrazol-1-yl)-3H-imidazo[4,5-b]pyridin-3-yl)-2,3-dihydro-1H-inden-1-yl)-3-formyl-4-hydroxybenzamide]",10 to 100 nM,10 to 100 nM,10 to 100 nM,10 to 100 nM
"Nc1ncccc1-c1nc2ccc(-c3ccccc3)nc2n1-c1ccc2c(c1)CC[C@@H]2NC(=O)c1cc(C=O)c(O)cc1Cl [Example 34, N-[(1S)-5-[2-(2-aminopyridin-3-yl)-5-phenylimidazo[4,5-b]pyridin-3-yl]-2,3-dihydro-1H-inden-1-yl]-2-chloro-5-formyl-4-hydroxybenzamide]",100 to 2000 nM,10 to 100 nM,100 to 2000 nM,10 to 100 nM
"Nc1ncccc1-c1nc2c(N3CCC3)cc(-n3cccn3)nc2n1-c1ccc2c(c1)CC[C@@H]2NC(=O)c1ccc(O)c(C=O)c1 [Example 231, N-[(1S)-5-[2-(2-aminopyridin-3-yl)-7-(azetidin-1-yl)-5-(pyrazol-1-yl)imidazo[4,5-b]pyridin-3-yl]-2,3-dihydro-1H-inden-1-yl]-3-formyl-4-hydroxybenzamide]",100 to 2000 nM,10 to 100 nM,100 to 2000 nM,10 to 100 nM
"Nc1ncccc1-c1nc2ccc(-c3cc4n(n3)CCC4)nc2n1-c1ccc2c(c1)CC[C@@H]2NC(=O)c1cc(C=O)c(O)cc1F [Example 247, N-[(1S)-5-[2-(2-aminopyridin-3-yl)-5-{4H,5H,6H-pyrrolo[1,2-b]pyrazol-2-yl}imidazo[4,5-b]pyridin-3-yl]-2,3-dihydro-1H-inden-1-yl]-2-fluoro-5-formyl-4-hydroxybenzamide]",100 to 2000 nM,10 to 100 nM,10 to 100 nM,10 to 100 nM
"CS(=O)(=O)Nc1cc(F)c(C(=O)N[C@H]2CCc3cc(-n4c(-c5cccnc5N)nc5ccc(-n6cccn6)nc54)ccc32)cc1C=O [Example 217, N-[(1S)-5-[2-(2-aminopyridin-3-yl)-5-(pyrazol-1-yl)imidazo[4,5-b]pyridin-3-yl]-2,3-dihydro-1H-inden-1-yl]-2-fluoro-5-formyl-4-methanesulfonamidobenzamide]",≥ 2000 nM,≥ 2000 nM,≥ 2000 nM,≥ 2000 nM
"Nc1ncccc1-c1nc2ccc(-n3ccnn3)nc2n1-c1ccc2c(c1)CC[C@@H]2NC(=O)c1ccc(O)c(C=O)c1 [Example 92, N-[(1S)-5-[2-(2-aminopyridin-3-yl)-5-(1,2,3-triazol-1-yl)imidazo[4,5-b]pyridin-3-yl]-2,3-dihydro-1H-inden-1-yl]-3-formyl-4-hydroxybenzamide]",100 to 2000 nM,10 to 100 nM,100 to 2000 nM,10 to 100 nM
"Nc1ncccc1-c1nc2ccc(-n3cccn3)nc2n1-c1ccc2c(c1)CC[C@@H]2NC(=O)c1cc(C=O)c(O)cc1F [Example 105, (S)—N-(5-(2-(2-aminopyridin-3-yl)-5-(1H-pyrazol-1-yl)-3H-imidazo[4,5-b]pyridin-3-yl)-2,3-dihydro-1H-inden-1-yl)-2-fluoro-5-formyl-4-hydroxybenzamide]",100 to 2000 nM,10 to 100 nM,10 to 100 nM,10 to 100 nM
"Cc1cc(-n2ccc(F)n2)nc2c1nc(-c1cccnc1N)n2-c1ccc2c(c1)CC[C@@H]2NC(=O)c1ccc(O)c(C=O)c1 [Example 181, (S)—N-(5-(2-(2-aminopyridin-3-yl)-5-(3-fluoro-1H-pyrazol-1-yl)-7-methyl-3H-imidazo[4,5-b]pyridin-3-yl)-2,3-dihydro-1H-inden-1-yl)-3-formyl-4-hydroxybenzamide]",100 to 2000 nM,10 to 100 nM,100 to 2000 nM,10 to 100 nM
"Cc1cc(-c2nccs2)nc2c1nc(-c1cccnc1N)n2-c1ccc2c(c1)CC[C@@H]2NC(=O)c1ccc(O)c(C=O)c1 [Example 180, N-[(1S)-5-[2-(2-aminopyridin-3-yl)-7-methyl-5-(1,3-thiazol-2-yl)imidazo[4,5-b]pyridin-3-yl]-2,3-dihydro-1H-inden-1-yl]-3-formyl-4-hydroxybenzamide]",10 to 100 nM,10 to 100 nM,10 to 100 nM,10 to 100 nM
"Nc1ncccc1-c1nc2ccc(-n3cccn3)nc2n1-c1ccc2c(c1)CC[C@@H]2NC(=O)c1cc(C=O)c(O)cc1O [Example 159, (S)—N-(5-(2-(2-aminopyridin-3-yl)-5-(1H-pyrazol-1-yl)-3H-imidazo[4,5-b]pyridin-3-yl)-2,3-dihydro-1H-inden-1-yl)-5-formyl-2,4-dihydroxybenzamide]",100 to 2000 nM,10 to 100 nM,100 to 2000 nM,10 to 100 nM
